Read-outs that look alike come from different tables or passages of the source.
Legend:
Mushroom tyrosinase = Mushroom tyrosinase inhibition, colorimetric detection of dopachrome from L-tyrosine; assay type: biochemical; conditions: for inhibitory activity on tyrosinase: in vitro, FIG. 1, FIG. 2 and peptide screen; for IC50 (result in words): L-tyrosine substrate, pH 6.8, 37° C., absorbance at 475 nm 30 min after initiation
Experimental: Mushroom tyrosinase, L-tyrosine and other chemicals for the enzymatic reaction were obtained from Sigma-Aldrich. […] All synthetic peptides were between 3 and 10 amino acids in length and were synthesized using tBoc and/or Fmoc solid phase chemistry.
Inhibition of tyrosinase by experimental peptides was determined by colorimetric detection of dopachrome, the reaction product of the substrate L-tyrosine. Mushroom tyrosinase, L-tyrosine, and a potassium phosphate buffer (pH 6.8) were added to 96-well plates containing short sequence peptides dissolved in 5% DMSO and incubated at 37° C. The absorbance at 475 nm was measured using a BIO-TEK plate reader 30 min after reaction initiation. Each experiment was performed in triplicate on 3 separate occasions. The protocol is described in further detail in Piao et al., “Mushroom Tyrosinase Inhibition Activity of Some Chromones,” Chem. Pharm. Bull. […]: 309-311 (2002), and in Pomerants, J. Biol. Chem. 238:2351-2357 (1963).
Enzyme kinetics were calculated using the Michaelis-Menton equation by observing changes in reaction velocity accompanying substrate concentrations of 0.5, 1, 2, and 4 mM L-tyrosine. Once initial reaction velocities were obtained, Lineweaver-Burke plots were created to calculate Km, Vmax, and to determine the mode of enzymatic inhibition.
Tyrosinase inhibition activity was determined in vitro using L-tyrosine as substrate with a modified method from Piao L Z, Park H R, Park Y K, Lee S K, Park J H, Park M K. 2002. Mushroom Tyrosinase Inhibition Activity of Some Chromones. Chem. Pharm Bull 50(3): 309-311.
The concentration of enzyme, substrate and inhibitor was denoted as [E], [S] and […], respectively. 80 microliters of 0.067 M potassium phosphate buffer (pH 6.8), 40 microliters of L-tyrosine in 0.067 M potassium phosphate buffer (pH 6.8), 40 microliters of inhibitor in 5% DMSO solution, and 40 microliters of mushroom tyrosinase solution were added to a 96-well microplate, to make the final concentration of each reagent to be: 0.2 mg/ml [S], and 96 units/ml [E], with varying [I]. 5% DMSO solution instead of an inhibitor solution was added to a blank solution and adjusted to the total volume of 200 microliters as control. The assay mixture was incubated at 37° C. The amount of dopachrome produced in the reaction mixture was measured at 475 nm in a microplate reader at different time periods. The percentage of inhibition of tyrosinase activity was calculated as follows: Inhibition(%)=[(A−B)−C−D)]/(A−B)×100 • A: absorbance of blank solution after incubation • B: absorbance of blank solution before incubation • C: absorbance of sample solution after incubation • D: absorbance of sample solution before incubation

[1] = tested on: Primary human melanocytes; conditions: for effect on melanocyte proliferation rates: FIG. 3
Experimental: Primary human melanocytes, passage 3, were kindly obtained from Dr. Todd Ridky in the department of dermatology, Stanford University. Cells were cultured in Medium 254 (Cascade Biologics) supplemented with Human Melanocyte Growth Supplement (HMGS, Cascade Biologics). They were grown in a humidified atmosphere with 5% CO2 at 37° C. Cell plating densities were arranged that those cells were in log phase of growth for the duration of incubation with test samples. Subcultures of cells were plated at a density of 4×10^4 cells/cm^2. Approximately 24 h later, fresh medium and test samples were added. Cells were harvested 7 d after test samples addition, replaced with fresh medium and test samples every two days.
Cell viability was determined using WST-1 Cell Proliferation Kit (Roche). Cells were plated at 1×10^5/well (24-well plates). Twenty-four hours after plating, test samples were added and cultures were incubated for an additional 7 d. At the end of the treatment period, 50 μl WST-1 was added to each well. The plates were placed at 37° C. for 4 h in the dark and the absorbance at 450 nm was read using microplate. Usually, 3 replicate wells were measured for each group to be tested. Wells containing medium but no cells served as controls. Cell viability was calculated according to the equation: cell viability=absorbance(sample tested)/absorbance(medium only)×100%.
The concentrations of HQ tested on melanocytes were 1, 10, 100, and 1000 μM, while those of YR peptide were 1, 10, and 100 μM.

Human melanocytes = test: Melanin content measurement in melanocytes; assay type: cell-based; conditions: FIG. 4; for melanin content: 10 μM (YR peptide: similar concentration), 7 days
Experimental: Human melanocytes were cultured in 6-well plates and treated with individual test samples for 7 d. After washes in PBS, cells were detached by short incubation in trypsin/EDTA (0.25%/0.1% in PBS). An aliquot was used for cell count. The remaining cells were sonicated and incubated overnight in 500 μl 1 M NaOH at 37° C., avoid light. Melanin concentrations were calculated by comparison of the OD at 475 nm of unknown samples with a standard curve obtained with synthetic melanin.
To provide more direct evidence that the YR peptide inhibits melanogenesis, we determined its effects on melanin production in melanocytes. The contents of melanin in melanocytes treated with no addition, YR peptide (P4) or HQ for 7 days were determined with spectrophotometer and compared with melanin standard curve.

Cellular tyrosinase = molecular target: T1, Cellular tyrosinase (Homo sapiens, UniProt P14679); test: Cellular tyrosinase activity using L-DOPA as the substrate; assay type: cell-based; conditions: for reduction of cellular tyrosinase activity: 7 d treatment of melanocytes
T1 construct: endogenous in cells; host or cells: primary human melanocytes, passage 3
T1 sequence (P14679 19-529): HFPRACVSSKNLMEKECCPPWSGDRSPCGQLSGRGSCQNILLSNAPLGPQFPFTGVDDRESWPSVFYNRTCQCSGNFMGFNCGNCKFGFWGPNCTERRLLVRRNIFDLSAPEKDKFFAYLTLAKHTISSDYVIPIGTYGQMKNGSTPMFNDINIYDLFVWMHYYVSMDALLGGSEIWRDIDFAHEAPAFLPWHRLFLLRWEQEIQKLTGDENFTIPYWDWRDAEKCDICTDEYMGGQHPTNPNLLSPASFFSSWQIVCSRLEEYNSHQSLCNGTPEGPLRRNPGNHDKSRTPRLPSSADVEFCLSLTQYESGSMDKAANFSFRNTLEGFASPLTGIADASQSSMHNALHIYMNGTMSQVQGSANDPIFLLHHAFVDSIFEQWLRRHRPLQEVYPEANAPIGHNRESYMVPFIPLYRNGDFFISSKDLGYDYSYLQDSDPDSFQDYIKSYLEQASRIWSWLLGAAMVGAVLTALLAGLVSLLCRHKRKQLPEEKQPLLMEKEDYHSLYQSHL
Experimental: Cellular tyrosinase activity using L-DOPA as the substrate was assayed by the method of Cheng K T, Hsu F L, Chen S H, Hsieh P K, Huang H S, Lee C K, Lee M H. 2007. […] Chem. Pharm Bull 55(5): 757-761.
Human melanocytes were cultured in 6-well plates. After treatment with individual test samples for 7 d, the cells were washed with phosphate-buffered saline (PBS) and lysed with phosphate buffer, pH 6.8, containing 1% Triton X-100. After sonication, lysates were clarified by centrifugation at 10000 g for 10 min. After determination of protein content with a Bio-Rad protein assay kit, lysates were added to 96 well culture plate containing equal amounts of protein (40 μg), and adjusted with lysis buffer to reach 150 μl in each well. 75 μl of 10 mM L-DOPA dissolved in lysis buffer was added to each well. The culture plate was incubated at 37° C. for 30 min, and then read with the spectrophotometer at 475 nm.
Tyrosinase inhibitory activity was calculated with the following formula: tyrosinase inhibition (%)=[1−(O.D.475 of sample/O.D.475 of control)]×100%.
After centrifugation and protein calculation, certain volume of supernatant for each sample was transferred to 96 well culture plate by compensating a certain protein content in each well, and adjusted the volume of each well to 150 μl with 0.067 M of phosphate buffer (pH 6.8). 75 μl of 10 mM L-DOPA dissolved in phosphate buffer (pH 6.8) was added to each well. The culture plate was incubated at 37° C. for 30 min, and then read with the spectrophotometer at 475 nm.

tyrosinase = conditions: read-out: published IC50; literature value; cited from earlier work

Molecule	inhibitory activity on tyrosinase (Mushroom tyrosinase)	melanin content (Human melanocytes)	reduction of cellular tyrosinase activity (Cellular tyrosinase; 10 μM) [%]	IC50 (result in words) (Mushroom tyrosinase)	other results
YRSRKYSSWY	had inhibitory activity on tyrosinase	significantly reduced melanin content, to a greater extent than HQ	24.1	–	effect on melanocyte proliferation rates ([1]; 1, 10 and 100 μM, listed as P4): did not observe any inhibitory effects; effect on melanocyte proliferation rates ([1]; 1, 10 and 100 μM, listed as YR peptide): did not inhibit cell proliferation; toxicity to melanocytes ([1]; up to 100 μM, treatment for 7 days): No toxicity was observed; melanin synthesis in human melanocytes (Human melanocytes): inhibited melanin synthesis; reduction of cellular tyrosinase activity (Cellular tyrosinase; 1 μM): 14.5%; reduction of cellular tyrosinase activity (Cellular tyrosinase; 100 μM): 37.4%; inhibition of tyrosinase activity, in words (Cellular tyrosinase; FIG. 5, after incubation of melanocytes): comparable to that of HQ
KFEFKFEF	only the former peptide had inhibiting activity	–	–	no effect	–
VLLK [control peptide; inner standard in stability testing]	only the YR peptide had inhibitory activity	–	–	no effect	–
KFEKKFEK	had inhibiting activity	–	–	–	–
Oc1ccc(O)cc1 [HQ, Hydroquinone, reference compound]	–	slightly reduced melanin content	28.8	–	effect on melanocyte proliferation rates ([1]; up to 10 μM): did not show inhibitory effects; IC50 (tyrosinase): ~700 µM

From patent US8193154B2, “Oligopeptide tyrosinase inhibitors and uses thereof” (The Board of Trustees of the Leland Stanford Junior …, priority 2007, dated 2012)
